# Test results published in patent publication US12371454B2, “Cyclic peptide compound having Kras inhibitory action” (priority 2019, dated 2025).
# Starred links: 1 amine or outer side, 2 acyl side, 3 side chain; linkers in the order of their positions; H or OH if unused. Positions of bridges follow the written chain, without caps; N, C: chain ends. Non-standard residues stand in square brackets, D forms with d. Residues, ends and D or L forms follow the SMILES beside them. *: point of attachment. hPhe(3-Cl-4-CF3) = N[C@@H](CCc1ccc(C(F)(F)F)c(Cl)c1)C(=O)O; hPhe(3-F,4-CF3) = N[C@@H](CCc1ccc(C(F)(F)F)c(F)c1)C(=O)O; X38 = CN([C@@H](Cc1cccc(OC(F)(F)F)c1)C(=O)[*:2])[*:1]; NMePhe(4-CF3) = CN[C@@H](Cc1ccc(C(F)(F)F)cc1)C(=O)O; hPhe(4-CF3) = N[C@@H](CCc1ccc(C(F)(F)F)cc1)C(=O)O; X5 = CC(C)(C)NC(=O)COC[C@H](CC(=O)[*:1])N[*:2]; Thiomorpholino(1,1-dioxo) = O=S1(=O)CCN(*)CC1; NMePhe(4-Cl) = CN[C@@H](Cc1ccc(Cl)cc1)C(=O)O; X55 = C[C@@](Cc1cccc(I)c1)(N[*:1])C(=O)[*:2]; NMePhe(4-Me) = CN[C@@H](Cc1ccc(C)cc1)C(=O)O; NMeMet(O2) = CN[C@@H](CCS(C)(=O)=O)C(=O)O; NMedβ3hAla = C[C@H](CC(=O)[*:2])N(C)[*:1]; hPhe(4-F) = N[C@@H](CCc1ccc(F)cc1)C(=O)O; NMeCha = CN[C@@H](CC1CCCCC1)C(=O)O; NMeI = CC[C@H](C)[C@H](NC)C(=O)O; NMeD = CN[C@@H](CC(=O)O)C(=O)O; NMeL = CN[C@@H](CC(C)C)C(=O)O; NMeV = CN[C@H](C(=O)O)C(C)C; d(β3hA) = C[C@@H](N)CC(=O)O; NMeA = CN[C@@H](C)C(=O)O; NMeAib = CNC(C)(C)C(=O)O; Nle = CCCC[C@H](N)C(=O)O; Piperidide = C1CCN(*)CC1; Pyrrolidide = C1CCN(*)C1; Ac5c = NC1(C(=O)O)CCCC1; Aze = O=C(O)[C@@H]1CCN1; Aib = CC(C)(N)C(=O)O; Sar = CNCC(=O)O
# Biological target: T1, Kras and SOS1 (biotin-tagged human Kras loaded with GDP, His-tagged human SOS1) (Homo sapiens, UniProt P01116, G12D)
# T1 construct: made in house; host or cells: E. coli (stated for Kras only)
# Test: Protein-protein interaction inhibition between Kras and SOS1 (KrasGl2D-SOS PPI) using AlphaScreen
# Format: binding
# Details: AlphaScreen; biotin-tagged human Kras loaded with GDP, His-tagged human SOS1; read-out: KRAS G12D-SOS PPI IC50
# Method in brief: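 Read-out is acceptor-bead light at 520-620 nm, arising when 680 nm-irradiated nickel donor beads pass singlet oxygen to streptavidin acceptors. The bead pair links His-tagged SOS1 with biotin-tagged, GDP-bound Kras from E. coli.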
# T1 sequence (P01116 1-188 isoform P01116-2 G12D): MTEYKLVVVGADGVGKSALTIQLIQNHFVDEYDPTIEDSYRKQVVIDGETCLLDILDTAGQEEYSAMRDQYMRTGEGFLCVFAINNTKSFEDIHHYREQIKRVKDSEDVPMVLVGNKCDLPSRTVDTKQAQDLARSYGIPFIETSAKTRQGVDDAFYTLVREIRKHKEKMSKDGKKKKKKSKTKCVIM
row,SMILES,IC50 [µM]
1,CC[C@H](C)[C@@H]1NC(=O)[C@H](CC(C)C)N(C)C(=O)C[C@@H](C(=O)N2CCCCC2)N(C)C(=O)[C@H](CCS(C)(=O)=O)N(C)C(=O)C2(CCCC2)NC(=O)[C@@H]2CCCN2C(=O)[C@H](CCc2ccc(C(F)(F)F)c(Cl)c2)NC(=O)CN(C)C(=O)[C@H](CC2CCCCC2)N(C)C(=O)CN(C)C(=O)CN(C)C1=O [Compound 162] ([NMeL]I[Sar][Sar][NMeCha][Sar][hPhe(3-Cl-4-CF3)]P[Ac5c][NMeMet(O2)][NMeD]-Piperidide; lactam N-11),0.23
2,"CC[C@H](C)[C@@H]1NC(=O)[C@H](C(C)C)N(C)C(=O)C[C@@H](C)NC(=O)[C@H](CC(C)C)N(C)C(=O)C2(CCCC2)NC(=O)[C@H](CC(C)C)N(C)C(=O)[C@H](CCc2ccc(C(F)(F)F)c(F)c2)NC(=O)CN(C)C(=O)[C@H](Cc2ccc(Cl)cc2)N(C)C(=O)[C@@H]2CCN2C(=O)CN(C)C1=O [Compound 418] (cyclo([Ac5c][NMeL][d(β3hA)][NMeV]I[Sar][Aze][NMePhe(4-Cl)][Sar][hPhe(3-F,4-CF3)][NMeL]))",0.017
3,CC[C@H](C)[C@@H]1NC(=O)[C@H](C)N(C)C(=O)C[C@@H](C)NC(=O)[C@H](CC(C)C)N(C)C(=O)C(C)(C)NC(=O)[C@H](CC(C)C)N(C)C(=O)[C@H](CCc2ccc(F)cc2)NC(=O)CN(C)C(=O)[C@H](Cc2ccc(Cl)cc2)N(C)C(=O)CN(C)C(=O)CN(C)C1=O [Compound 28] (cyclo([Aib][NMeL][d(β3hA)][NMeA]I[Sar][Sar][NMePhe(4-Cl)][Sar][hPhe(4-F)][NMeL])),0.16
4,CC[C@H](C)[C@@H]1NC(=O)[C@H](C)N(C)C(=O)C[C@@H](C)N(C)C(=O)[C@H](CC(C)C)NC(=O)C(C)(C)N(C)C(=O)[C@H](CC(C)C)NC(=O)[C@H](CCc2ccc(C(F)(F)F)c(Cl)c2)NC(=O)CN(C)C(=O)[C@H](Cc2ccc(C(F)(F)F)cc2)N(C)C(=O)[C@@H]2CCN2C(=O)CN(C)C1=O [Compound 1392] (cyclo([Aze][NMePhe(4-CF3)][Sar][hPhe(3-Cl-4-CF3)]L[NMeAib]L[NMedβ3hAla][NMeA]I[Sar])),0.028
5,CC[C@H](C)[C@@H]1NC(=O)[C@H](C)N(C)C(=O)C[C@@H](C(=O)N2CCCC2)NC(=O)[C@H](CC(C)C)N(C)C(=O)[C@H](CC(C)C)N(C)C(=O)[C@H](CC(C)C)NC(=O)[C@H](CCc2ccc(C(F)(F)F)cc2)NC(=O)CN(C)C(=O)[C@H](Cc2ccc(Cl)cc2)N(C)C(=O)CN(C)C(=O)CN(C)C1=O [Compound 46] ([NMeA]I[Sar][Sar][NMePhe(4-Cl)][Sar][hPhe(4-CF3)]L[NMeL][NMeL]D-Pyrrolidide; lactam N-11),0.12
6,CC[C@H](C)[C@@H]1NC(=O)[C@H](C)N(C)C(=O)C[C@@H](C(=O)N(C)C)N(C)C(=O)[C@H]([C@@H](C)CC)N(C)C(=O)C2(CCCC2)NC(=O)[C@H](Cc2cccc(OC(F)(F)F)c2)N(C)C(=O)[C@H](CCc2ccc(C(F)(F)F)c(Cl)c2)NC(=O)CN(C)C(=O)[C@H](Cc2ccc(C)cc2)N(C)C(=O)[C@@H]2CCN2C(=O)[C@H](C)N(C)C1=O [Compound 1945] ([NMeA]I[NMeA][Aze][NMePhe(4-Me)][Sar][hPhe(3-Cl-4-CF3)][X38][Ac5c][NMeI][NMeD]-NMe2; lactam N-11),0.018
7,CC[C@H](C)[C@@H]1NC(=O)[C@H](CC(C)C)N(C)C(=O)C[C@@H](COCC(=O)NC(C)(C)C)NC(=O)[C@H](C(C)C)N(C)C(=O)C2(CCCC2)NC(=O)[C@@H]2CCCN2C(=O)[C@H](CCc2ccc(C(F)(F)F)c(Cl)c2)NC(=O)CN(C)C(=O)[C@H](CC2CCCCC2)N(C)C(=O)CN(C)C(=O)CN(C)C1=O [Compound 955] ([NMeL]I[Sar][Sar][NMeCha][Sar][hPhe(3-Cl-4-CF3)]P[Ac5c][NMeV]; linker N-C via X5),0.026
8,"CC[C@H](C)[C@@H]1NC(=O)[C@H](CC(C)C)N(C)C(=O)C[C@@H](C(=O)N2CCS(=O)(=O)CC2)NC(=O)[C@H]([C@@H](C)CC)N(C)C(=O)C2(CCCC2)NC(=O)[C@@H]2CCCN2C(=O)[C@H](CCc2ccc(C(F)(F)F)c(Cl)c2)NC(=O)CN(C)C(=O)[C@H](CC2CCCCC2)N(C)C(=O)CN(C)C(=O)CN(C)C1=O [Compound 1279] ([NMeL]I[Sar][Sar][NMeCha][Sar][hPhe(3-Cl-4-CF3)]P[Ac5c][NMeI]D-{Thiomorpholino(1,1-dioxo)}; lactam N-11)",0.016
9,CCCC[C@@H]1NC(=O)[C@](C)(Cc2cccc(I)c2)NC(=O)CN(C)C(=O)[C@H](Cc2ccc(Cl)cc2)N(C)C(=O)CN(C)C(=O)CN(C)C(=O)[C@H]([C@@H](C)CC)NC(=O)[C@H](CC(C)C)N(C)C(=O)C[C@@H](C(=O)N2CCCCC2)N(C)C(=O)[C@H](CC(C)C)NC(=O)C(C)(C)N(C)C1=O [Compound 1202] ([NMeL]I[Sar][Sar][NMePhe(4-Cl)][Sar][X55][Nle][NMeAib]L[NMeD]-Piperidide; lactam N-11),0.24
